PubChem BioAssay (NCI)
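Protocol summary: plate cells (96-well), add compound at 5 concentrations, incubate 48 h, interpolate endpoints linearly. GI50: concentration for 50% inhibition of growth. TGI: total growth inhibition.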

Legend:
Test in all cases: DTP human tumour cell line panel, 48 h; in the data active = GI50 below about 0.43 µM; inactive = the rest
CCRF-CEM leukemia = system: CCRF-CEM leukemia
HL-60(TB) leukemia = system: HL-60(TB) leukemia
UACC-257 melanoma = system: UACC-257 melanoma
SW-620 colon = system: SW-620 colon
NCI-H23 lung = system: NCI-H23 lung
OVCAR-3 ovarian = system: OVCAR-3 ovarian
SNB-19 CNS = system: SNB-19 CNS
U251 CNS = system: U251 CNS
SK-MEL-5 melanoma = system: SK-MEL-5 melanoma
SF-268 CNS = system: SF-268 CNS
MDA-MB-435 = system: MDA-MB-435
ACHN renal = system: ACHN renal
HS 578T breast = system: HS 578T breast
CAKI-1 renal = system: CAKI-1 renal
NCI-H522 lung = system: NCI-H522 lung
OVCAR-8 ovarian = system: OVCAR-8 ovarian
NCI-H226 lung = system: NCI-H226 lung
UACC-62 melanoma = system: UACC-62 melanoma
IGROV1 ovarian = system: IGROV1 ovarian
RPMI-8226 leukemia = system: RPMI-8226 leukemia
MALME-3M melanoma = system: MALME-3M melanoma
A498 renal = system: A498 renal
MOLT-4 leukemia = system: MOLT-4 leukemia
SR leukemia = system: SR leukemia
MDA-MB-231 breast = system: MDA-MB-231 breast
EKVX NSCLC = system: EKVX NSCLC
PC-3 prostate = system: PC-3 prostate
K-562 leukemia = system: K-562 leukemia
HOP-62 NSCLC = system: HOP-62 NSCLC
OVCAR-4 ovarian = system: OVCAR-4 ovarian
MCF7 breast = system: MCF7 breast
DU-145 prostate = system: DU-145 prostate
KM12 colon = system: KM12 colon
SF-539 CNS = system: SF-539 CNS
SF-295 CNS = system: SF-295 CNS
M14 melanoma = system: M14 melanoma
TK-10 renal = system: TK-10 renal
SN12C renal = system: SN12C renal
786-0 renal = system: 786-0 renal
NCI-H460 lung = system: NCI-H460 lung
HCT-116 colon = system: HCT-116 colon
SK-MEL-28 melanoma = system: SK-MEL-28 melanoma
HCC-2998 colon = system: HCC-2998 colon
RXF 393 renal = system: RXF 393 renal
BT-549 breast = system: BT-549 breast
UO-31 renal = system: UO-31 renal
A549 NSCLC = system: A549 NSCLC
LOX IMVI melanoma = system: LOX IMVI melanoma
SK-OV-3 ovarian = system: SK-OV-3 ovarian
HCT-15 colon = system: HCT-15 colon
SNB-75 CNS = system: SNB-75 CNS
NCI/ADR-RES ovarian = system: NCI/ADR-RES ovarian
COLO 205 colon = system: COLO 205 colon
OVCAR-5 ovarian = system: OVCAR-5 ovarian
HT29 colon = system: HT29 colon
T-47D breast = system: T-47D breast

CN(C)c1ccc(Nc2ncnc3ccccc23)cc1
> 100 µM: TGI (CCRF-CEM leukemia) | TGI (HL-60(TB) leukemia) | TGI (UACC-257 melanoma) | TGI (SW-620 colon) | TGI (NCI-H23 lung) | TGI (OVCAR-3 ovarian) | TGI (SNB-19 CNS) | TGI (U251 CNS) | TGI (SK-MEL-5 melanoma) | TGI (SF-268 CNS) | TGI (MDA-MB-435) | TGI (ACHN renal) | TGI (HS 578T breast) | TGI (CAKI-1 renal) | TGI (NCI-H522 lung) | TGI (OVCAR-8 ovarian) | TGI (NCI-H226 lung) | TGI (UACC-62 melanoma) | TGI (IGROV1 ovarian) | TGI (RPMI-8226 leukemia) | TGI (MALME-3M melanoma) | TGI (A498 renal) | TGI (MOLT-4 leukemia) | TGI (SR leukemia) | TGI (MDA-MB-231 breast) | TGI (EKVX NSCLC) | TGI (PC-3 prostate) | TGI (K-562 leukemia) | TGI (HOP-62 NSCLC) | TGI (OVCAR-4 ovarian) | TGI (MCF7 breast) | TGI (DU-145 prostate) | TGI (KM12 colon) | TGI (SF-539 CNS) | TGI (SF-295 CNS) | TGI (M14 melanoma) | TGI (TK-10 renal) | TGI (SN12C renal) | TGI (786-0 renal) | TGI (NCI-H460 lung) | TGI (HCT-116 colon) | TGI (SK-MEL-28 melanoma) | TGI (HCC-2998 colon) | TGI (RXF 393 renal) | TGI (BT-549 breast) | TGI (UO-31 renal) | TGI (A549 NSCLC) | TGI (LOX IMVI melanoma) | TGI (SK-OV-3 ovarian) | TGI (HCT-15 colon) | TGI (SNB-75 CNS) | TGI (NCI/ADR-RES ovarian) | TGI (COLO 205 colon) | TGI (OVCAR-5 ovarian) | TGI (HT29 colon) | TGI (T-47D breast)
inactive: GI50 (CCRF-CEM leukemia) > 100 µM | GI50 (HL-60(TB) leukemia) > 100 µM | GI50 (UACC-257 melanoma) > 100 µM | GI50 (SW-620 colon) > 100 µM | GI50 (NCI-H23 lung) > 100 µM | GI50 (OVCAR-3 ovarian) > 100 µM | GI50 (SNB-19 CNS) > 100 µM | GI50 (U251 CNS) > 100 µM | GI50 (SK-MEL-5 melanoma) > 100 µM | GI50 (SF-268 CNS) > 100 µM | GI50 (MDA-MB-435) > 100 µM | GI50 (ACHN renal) > 100 µM | GI50 (HS 578T breast) > 100 µM | GI50 (CAKI-1 renal) > 100 µM | GI50 (NCI-H522 lung) > 100 µM | GI50 (OVCAR-8 ovarian) > 100 µM | GI50 (NCI-H226 lung) > 100 µM | GI50 (UACC-62 melanoma) > 100 µM | GI50 (IGROV1 ovarian) > 100 µM | GI50 (RPMI-8226 leukemia) > 100 µM | GI50 (MALME-3M melanoma) > 100 µM | GI50 (A498 renal) > 100 µM | GI50 (MOLT-4 leukemia) 18.8 µM | GI50 (SR leukemia) 54.3 µM | GI50 (MDA-MB-231 breast) > 100 µM | GI50 (EKVX NSCLC) > 100 µM | GI50 (PC-3 prostate) > 100 µM | GI50 (K-562 leukemia) > 100 µM | GI50 (HOP-62 NSCLC) > 100 µM | GI50 (OVCAR-4 ovarian) > 100 µM | GI50 (MCF7 breast) > 100 µM | GI50 (DU-145 prostate) > 100 µM | GI50 (KM12 colon) > 100 µM | GI50 (SF-539 CNS) > 100 µM | GI50 (SF-295 CNS) > 100 µM | GI50 (M14 melanoma) > 100 µM | GI50 (TK-10 renal) > 100 µM | GI50 (SN12C renal) > 100 µM | GI50 (786-0 renal) > 100 µM | GI50 (NCI-H460 lung) > 100 µM | GI50 (HCT-116 colon) > 100 µM | GI50 (SK-MEL-28 melanoma) > 100 µM | GI50 (HCC-2998 colon) > 100 µM | GI50 (RXF 393 renal) > 100 µM | GI50 (BT-549 breast) > 100 µM | GI50 (UO-31 renal) > 100 µM | GI50 (A549 NSCLC) > 100 µM | GI50 (LOX IMVI melanoma) > 100 µM | GI50 (SK-OV-3 ovarian) > 100 µM | GI50 (HCT-15 colon) > 100 µM | GI50 (SNB-75 CNS) > 100 µM | GI50 (NCI/ADR-RES ovarian) > 100 µM | GI50 (COLO 205 colon) > 100 µM | GI50 (OVCAR-5 ovarian) > 100 µM | GI50 (HT29 colon) > 100 µM | GI50 (T-47D breast) > 100 µM
